pEC50: −log10 of the molar value.
target: T1, hSTING (Homo sapiens, UniProt Q86WV6, G230A/H232R/R293Q/R71H); test: STING reporter assay (luciferase) in THP1-Dual KO-IFNAR2 cells stimulated with 2′3′cGAMP; format: cell-based; conditions: 2′3′cGAMP 15 μM, 24 h, class symbols
T1 construct: host or cells: THP1-Dual KO-IFNAR2 cells
Outline: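 THP1-Dual KO-IFNAR2 cells (2×10E6 cells/mL) were treated with compound at 0.0017-100 μM final plus 15 μM final 2′3′cGAMP delivered with Lipofectamine 2000. After 24 h at 37° C., secreted luciferase in supernatant was read by QUANTI-Luc luminescence and EC50 values were fitted.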

T1 sequence (Q86WV6 whole entry R71H/G230A/H232R/R293Q): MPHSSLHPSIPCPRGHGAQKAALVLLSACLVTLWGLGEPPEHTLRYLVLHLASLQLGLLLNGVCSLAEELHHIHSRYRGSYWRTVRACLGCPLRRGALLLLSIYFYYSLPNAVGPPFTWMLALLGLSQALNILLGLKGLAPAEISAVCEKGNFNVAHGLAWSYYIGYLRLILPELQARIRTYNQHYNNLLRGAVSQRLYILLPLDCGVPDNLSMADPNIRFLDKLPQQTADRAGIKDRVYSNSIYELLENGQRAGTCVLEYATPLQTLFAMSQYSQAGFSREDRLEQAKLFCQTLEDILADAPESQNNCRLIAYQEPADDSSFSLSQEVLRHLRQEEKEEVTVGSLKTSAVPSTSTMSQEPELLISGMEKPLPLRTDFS

Compound	pEC50
O=C(Nc1cnc(N2CCC3(CC2)CC3)c(Cl)c1)Nc1c[nH]c2cccnc12 [Compound 221, 1-(5-chloro-6-(6-azaspiro[2.5]octan-6-yl)pyridin-3-yl)-3-(1H-pyrrolo[3,2-b]pyridin-3-yl)urea]	6.00 to 6.70
O=C(Nc1cnc(C2CCN(CC(F)(F)F)CC2)c(Cl)c1)Nc1c[nH]c2cccnc12 [Compound 222, 1-(5-chloro-6-(1-(2,2,2-trifluoroethyl)piperidin-4-yl)pyridin-3-yl)-3-(1H-pyrrolo[3,2-b]pyridin-3-yl)urea]	6.00 to 6.70

Results, then the molecule that gave them:

pEC50	Compound
6.00 to 6.70	O=C(Nc1cnc(N2CCCCC2)c(Cl)c1)Nc1c[nH]c2ncc(F)cc12 [Compound 196, 1-(5-chloro-6-(piperidin-1-yl)pyridin-3-yl)-3-(5-fluoro-1H-pyrrolo[2,3-b]pyridin-3-yl)urea]
6.00 to 6.70	N#Cc1cc(NC(=O)Nc2c[nH]c3ncc(F)cc23)cnc1N1CCC(F)(F)CC1 [Compound 157, 1-(5-cyano-6-(4,4-difluoropiperidin-1-yl)pyridin-3-yl)-3-(5-fluoro-1H-pyrrolo[2,3-b]pyridin-3-yl)urea]
6.00 to 6.70	Cc1cc(NC(=O)Nc2c[nH]c3ncc(F)cc23)cnc1N1CC(F)(F)C1 [Compound 171, 1-(6-(3,3-difluoroazetidin-1-yl)-5-methylpyridin-3-yl)-3-(5-fluoro-1H-pyrrolo[2,3-b]pyridin-3-yl)urea]

same assay, conditions: 2′3′cGAMP 15 μM, 24 h, numeric bounds

Compound	pEC50
O=C(Nc1ccc(N2CCC(F)(F)CC2)nc1)Nc1c[nH]c2cccnc12 [Compound 220, 1-(6-(4,4-difluoropiperidin-1-yl)pyridin-3-yl)-3-(1H-pyrrolo[3,2-b]pyridin-3-yl)urea]	< 4.52
O=C(Nc1ccc(C2CCC(O)CC2)nc1)Nc1c[nH]c2ncc(F)cc12 (stereo not shown) [Compound 114, 1-(5-fluoro-1H-pyrrolo[2,3-b]pyridin-3-yl)-3-(6-(4-hydroxycyclohexyl)pyridin-3-yl)urea]	< 4.00
